Test results published in PubChem BioAssay (NCI).
Where “and” joins values, the source holds several entries; their conditions need not be identical. Equal values may be shown once.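 48-hour exposure; five concentrations; linearly interpolated endpoints. Here, GI50 denotes the concentration required for 50% inhibition of growth. TGI denotes the concentration required for complete inhibition of growth.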

Tests used:
Assay in all cases: NCI tumour cell line growth inhibition, 48 h
BT-549 breast = test system: BT-549 breast
DU-145 prostate = test system: DU-145 prostate
HS 578T breast = test system: HS 578T breast
MCF7 breast = test system: MCF7 breast
MDA-MB-435 = test system: MDA-MB-435
NCI/ADR-RES ovarian = test system: NCI/ADR-RES ovarian
T-47D breast = test system: T-47D breast

Row | SMILES | TGI (BT-549 breast) [µM] | GI50 (DU-145 prostate) [µM] | TGI (DU-145 prostate) [µM] | GI50 (HS 578T breast) [µM] | TGI (HS 578T breast) | TGI (MCF7 breast) [µM] | TGI (MDA-MB-435) [µM] | GI50 (NCI/ADR-RES ovarian) [µM] | TGI (NCI/ADR-RES ovarian) [µM] | GI50 (T-47D breast) [µM] | TGI (T-47D breast) [µM] | GI50 (MCF7 breast) [µM] | GI50 (MDA-MB-435) [µM] | GI50 (BT-549 breast) [µM]
1 | O=C(O)Cc1ccccc1 | > 2000 | > 1000 | > 1000 | > 1000 | > 1000 µM and 1780 µM | > 2000 | > 2000 | > 1000 | > 2000 | > 1000 | > 2000 |  |  | 
2 | C/C=C(\C)C(=O)O[C@@H]1C=CC(=O)O[C@H]1COC(=O)[C@H](C)O |  | 10.8 | 31.8 | 5.61 | 34.6 µM | 18.3 | 71.6 | 14.6 | 56.8 | 4.64 | 25.6 | 4.53 | 15.2 | 
3 | CC1(C)CCC(CN2CCN(c3ccc(C(=O)NS(=O)(=O)c4ccc(NCC5CCOCC5)c([N+](=O)[O-])c4)c(Oc4cnc5[nH]ccc5c4)c3)CC2)=C(c2ccc(Cl)cc2)C1 | 8.66 | 4.47 | 21.3 | 2.94 | 12.2 µM | 14.5 | 5.38 | 5 | 27.3 | 3.25 | 18.9 | 3.16 | 2.07 | 3.13
4 | C#CCSc1nnnn1-c1ccc(Br)c(C)c1 | > 100 | 16.6 | 47.5 | 2.86 | 26.9 µM | > 100 | 55.8 | 17.4 | 72.7 | 21 | > 100 | 28.4 | 17.9 | 48.7
5 | COc1ccc(C2=NN(c3ccc(S(N)(=O)=O)cc3)C(c3ccc(Cl)cc3)C2)c(O)c1 (stereo not drawn) | 13.6 | 5.88 | 20.7 | 3.93 | 19.5 µM | 8.66 | 13.8 | 3.98 | 21.1 | 2.4 | 7.81 | 2.08 | 3.26 | 4.07
6 | O=C(Nc1ccc(Cl)cc1)C(=O)C1=C(O)c2ccccc2OC1 | > 100 |  | > 100 |  | > 100 µM | > 100 | > 100 |  | > 100 |  | > 100 |  |  | 
7 | Cc1nc(N=C(N)N)nc2ccc3ccccc3c12 | 7.96 | 1.53 | 5.31 | 0.606 | 3.16 µM | 2.93 | 2.77 | 11.4 | 36 | 1.12 | 7.24 | 0.441 | 1.28 | 2.67
8 | C[C@@H](Oc1cc(-n2cnc3ccc(OCC4CCN(C)CC4)cc32)sc1C(N)=O)c1ccccc1C(F)(F)F | 4.75 | 0.0643 | 0.246 | 0.631 | 5.02 µM | 3.18 | 0.0959 | 0.477 | 3.87 | 2.69 | 6.03 | 0.0651 | 0.039 | 1.37
9 | CC1OC(OC2C(OC3CCC4(C)C(CCC5(C)C4CC=C4C6CC(C)(C)CCC6(CO)C(O)CC45C)C3(C)C)OC(C(=O)O)C(OC3OC(COC4OC(CO)C(O)C(O)C4O)C(O)C(O)C3O)C2O)C(O)C(O)C1O (stereo not drawn) | 2.49 | 13.4 | 25.1 | 13.1 | 34.6 µM | 24.2 | 14.7 | 11.5 | 23.6 | 12.3 | 27.8 | 11.4 | 4.34 | 1.15
10 | COc1cc2nc(-c3ccc(Cl)cc3)cc(OCCCN3CCC(O)CC3)c2cc1OC | 13.3 | 2.78 | 25.9 | 1.91 | 6.65 µM | 3.79 | 5.2 | 0.925 | 14.8 | 2.26 | 12 | 1.6 | 2.05 | 2.79
11 | CN(C)c1ccc(N=C(C#N)c2nc(N)nc(N3CCOCC3)n2)cc1 | > 100 | 49.8 | > 100 |  |  |  | > 100 | 27.1 | 62.8 | > 100 | > 100 |  | 53.2 | 35
12 | C=C(CNCCc1ccc(O)cc1)[C@@H]1CC[C@]2(CO)CC[C@]3(C)[C@H](CC[C@@H]4[C@@]5(C)CCC(NCCO)C(C)(C)[C@@H]5CC[C@]43C)[C@@H]12 (stereo partly drawn) | 3.15 | 1.6 | 3.04 | 1.69 | 3.85 µM | 1.76 | 2.97 | 2.09 | 4.88 | 1.79 | 3.96 | 0.4 | 1.51 | 1.5
13 | CC1(C)OCC(C2OC(On3nnc4ccc(Cl)cc43)C3OC(C)(C)OC23)O1 (stereo not drawn) | > 100 |  | > 100 |  | > 100 µM | > 100 | > 100 |  | > 100 |  | > 100 |  |  | 
14 | COC(=O)C1(C)CCc2c(ccc3ccccc23)C1=O (stereo not drawn) | 64 |  | > 100 |  | > 100 µM | 81.2 | > 100 |  | > 100 |  | 72.8 |  |  | 
15 | COc1ccc2c(c1)C(=O)/C(=C/c1ccc(OCC(=O)c3ccc(Cl)cc3)cc1)O2 | 59.1 | 16.4 | 29.9 | 22.1 | 84.6 µM | > 100 | 91.8 | 16.3 | 41.8 | 10.5 | 35.7 | 28.3 | 22.9 | 18.4
16 | O=C1c2cccnc2-c2nc(-c3ccccc3)cc3c2c1nc1ccccc13 | 21.3 | 13.6 | 30.2 | 16.6 | 42.9 µM | 4.11 | 2.96 | 11.9 | 32.7 | 5.35 | 44.3 | 1.09 | 1.53 | 5.15
17 | COC(=O)Oc1nn(C(=O)OC)c(=O)c2ccccc12 (tested in a mixture with another compound) |  |  | > 100 |  | > 100 µM | > 100 | > 100 |  | > 100 |  | > 100 |  |  | 
18 | CCOC(=O)c1c(-c2ccccc2)[nH]c2ccccc2c1=O |  |  | > 100 |  | > 100 µM | > 100 |  |  | > 100 |  | > 100 |  |  | 
19 | Cn1cc(-c2nonc2-c2cn(C)c3ccc(Br)cc23)c2ccccc21 | > 100 | 4.09 | > 100 |  |  | > 100 |  | 3.19 | > 100 |  |  | 2.83 |  | 6.17
